Laboratory results: US20040138234A1, “Histamine receptor antagonists” (Pfizer Inc, priority 2001, published 2004)
Where a name gives a salt, the structure may show the parent alone.

Columns and labels:
human eosinophils [1] = assay: Promotion of chemotaxis of interleukin 5 primed human isolated eosinophils (agonist mode); assay type: cell-based; conditions: interleukin 5 priming; for promotion of chemotaxis of human eosinophils: concentrations of from 10^−4 to 10^−5 M
Description: (§1) A further functional assay for the histamine H4 receptor determines the ability of histamine to induce chemotaxis in eosinophils isolated from human blood. In this assay cells are primed with interleukin 5 and the ability of histaminergic ligands to promote migration of eosinophils across a permeable membrane is studied. The number of cells migrating in a defined period is then counted. Agonist potencies are expressed as EC50 values. Antagonists can also be studied by pre-incubating eosinophils with the compound and then assessing the inhibitory effects on histamine (or other suitable ligand) on eosinophil chemotaxis. The experiments can be performed in one of two ways. Firstly, by increasing the concentration of antagonist versus fixed concentration of agonist and calculating the IC50 for each antagonist. Secondly, by increasing the concentration of antagonist versus increasing the concentration of agonist and expressing the antagonist potency as a pkb or pA2 value, as appropriate.

human eosinophils [2] = assay: Inhibition of histamine-induced chemotaxis of human eosinophils (eosinophil pre-incubation method); assay type: cell-based; conditions: for effect on histamine-induced chemotaxis: at concentrations of 10 micromolar; for IC50: Homo sapiens, Eosinophil, eosinophils pre-incubated with antagonist, concentration related
Description: as §1

histamine H4 receptor = target: T1, histamine H4 receptor (Homo sapiens, UniProt Q9H3N8); assay: Histamine H4 receptor radioligand binding, HEK293 cell line membranes
T1 construct: expressed in transfected cells; host or cells: HEK293
Excerpt: The cDNA for the human histamine H3 and H4 receptor can be expressed in a suitable cell line such as HEK293 or CHO. In addition membranes can be prepared from tissues or cells which naturally express either the histamine H3 and/or H4 receptor. Affinity can be assessed at either receptor by assessing the ability of ligands to inhibit the binding of a suitable radioactively labelled ligand to membranes containing either the histamine H3 or H4 receptor. The potency of compounds is compared by calculating their pKI values.

T1 sequence (Q9H3N8 whole entry): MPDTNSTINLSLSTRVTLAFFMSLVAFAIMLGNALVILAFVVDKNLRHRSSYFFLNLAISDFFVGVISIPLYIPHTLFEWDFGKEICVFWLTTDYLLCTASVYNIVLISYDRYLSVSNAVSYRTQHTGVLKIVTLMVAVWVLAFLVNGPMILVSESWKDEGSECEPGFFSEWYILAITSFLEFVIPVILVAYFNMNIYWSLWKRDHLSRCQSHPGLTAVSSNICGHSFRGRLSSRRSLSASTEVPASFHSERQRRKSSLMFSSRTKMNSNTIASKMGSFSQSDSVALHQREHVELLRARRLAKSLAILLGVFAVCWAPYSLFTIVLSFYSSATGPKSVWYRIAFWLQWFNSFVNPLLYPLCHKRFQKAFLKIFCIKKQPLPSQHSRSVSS

NCCc1c[nH]cn1 [histamine]
promotion of chemotaxis of human isolated eosinophils (human eosinophils [1]; concentration range 10^−8 to 10^−5 M): promoted chemotaxis

CC(CCCCC(=O)Nc1ccc(C(F)(F)F)cc1)NCCc1cnc[nH]1 (stereo not drawn) [HTMT]
promotion of chemotaxis of human eosinophils (human eosinophils [1]): did not promote chemotaxis

CN/C(=N/CCSCc1nc[nH]c1C)NC#N [cimetidine]
effect on histamine-induced chemotaxis (human eosinophils [2]): little or no effect

CN(C)CCCSC(=N)N [dimaprit]
promotion of chemotaxis of human eosinophils (human eosinophils [1]): did not promote chemotaxis

N=C(N)SCCc1cnc[nH]1 [imetit]
promotion of chemotaxis of human eosinophils (human eosinophils [1]): did not promote chemotaxis

S=C(NC1CCCCC1)N1CCC(c2cnc[nH]2)CC1 [thioperamide maleate]
IC50 (human eosinophils [2]): 830 nM

NC(=NCc1ccc(Cl)cc1)SCCCc1cnc[nH]1 [Clobenpropit]
Ki (histamine H4 receptor): 6.61 nM

NC(=NCc1ccc(Cl)cc1)SCCCc1cnc[nH]1 [clobenpropit dihydrobromide]
IC50 (human eosinophils [2]): 1500 nM

COc1ccc(CN(CCN(C)C)c2ccccn2)cc1 [mepyramine maleate]
effect on histamine-induced chemotaxis (human eosinophils [2]): little or no effect
